Reference: publication PMC7946891, “Versatility in acyltransferase activity completes chicoric acid biosynthesis in purple coneflower” (Nature Communications, 2021)

Biological target: T1, EpHCT (Echinacea purpurea, UniProt A0A890VVY1)
T1 construct: full-length CDS, N-terminal 6xHis (pDEST17), E. coli BL21(DE3), Ni-NTA purified
Experiment: in vitro enzyme assay, LC-HRMS product detection
Type: biochemical

T1 sequence (A0A890VVY1 1-434): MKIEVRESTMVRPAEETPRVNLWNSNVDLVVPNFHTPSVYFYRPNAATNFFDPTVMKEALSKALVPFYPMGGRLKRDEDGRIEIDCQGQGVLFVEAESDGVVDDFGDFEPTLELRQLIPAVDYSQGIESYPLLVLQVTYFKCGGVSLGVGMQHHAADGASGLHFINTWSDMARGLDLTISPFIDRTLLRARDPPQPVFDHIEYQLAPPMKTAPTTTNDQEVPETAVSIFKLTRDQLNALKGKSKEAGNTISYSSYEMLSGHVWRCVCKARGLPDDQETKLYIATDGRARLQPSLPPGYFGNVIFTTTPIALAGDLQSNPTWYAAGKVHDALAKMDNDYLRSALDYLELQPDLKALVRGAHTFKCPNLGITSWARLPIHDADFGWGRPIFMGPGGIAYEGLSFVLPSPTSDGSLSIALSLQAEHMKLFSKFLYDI

## O=C(O)C1=C[C@@H](O)[C@@H](O)[C@H](O)C1 [shikimic acid]
p-coumaroyl CoA or caffeoyl CoA as acyl donor
  in vitro enzyme assay, LC-HRMS product detection: production of p-coumaroyl shikimic acid using p-coumaroyl CoA and shikimic acid as substrates

## CC(C)(COP(=O)(O)OP(=O)(O)OC[C@H]1O[C@@H](n2cnc3c(N)ncnc32)[C@H](O)[C@@H]1OP(=O)(O)O)[C@@H](O)C(=O)NCCC(=O)NCCSC(=O)/C=C/c1ccc(O)cc1 [p-coumaroyl CoA]
Shikimic acid as acyl acceptor
  in vitro enzyme assay, LC-HRMS product detection: production of p-coumaroyl shikimic acid using p-coumaroyl CoA and shikimic acid as substrates
